The values below come from ChEMBL document CHEMBL4340502, “Anti-biofilm and anti-adherence properties of novel cyclic dipeptides against oral pathogens” (Bioorg Med Chem, 2019).

Active and inactive are the calls of the source. Unless noted, no cut-off for these calls is given here.

The first data set relates to Candida albicans. The data set is described as follows: Antibiofilm activity against Candida albicans ATCC 28366 assessed as reduction of biofilm formation at 24 to 48 ug/mL after 24 hrs by crystal violet staining based assay. It counts as functional, organism-based.
Settings: not given
Take `O=C1N[C@H](Cc2ccc(OCc3ccccc3)cc2)C(=O)N[C@@H]1Cc1ccccc1`: the result was Active.

On to `O=C1N[C@@H](Cc2ccc(OCc3ccccc3)cc2)C(=O)N[C@H]1Cc1ccccc1`, for which the result was Active.

The next data set deals with Listeria monocytogenes. The data set is described as follows: Growth inhibition of Listeria monocytogenes WSLC 1001 incubated for 24 hrs under aerobic condition by microdilution method. The class given is organism-based. The following applies: in vitro. For orientation: Broth dilution looks for growth in wells or tubes with falling amounts of substance.
Regarding `O=C1N[C@H](Cc2ccc(OCc3ccccc3)cc2)C(=O)N[C@@H]1Cc1ccccc1`, the MIC is greater than 192 µg/mL.

As for `O=C1N[C@@H](Cc2ccc(OCc3ccccc3)cc2)C(=O)N[C@H]1Cc1ccccc1`, the MIC was greater than 192 µg/mL.

Another data set concerns Candida albicans. Put plainly: Antibiofilm activity against Candida albicans ATCC 28366 assessed as reduction of biofilm formation after 24 hrs by crystal violet staining based assay. The class given is functional, organism-based.
Settings: not given
Take `O=C1N[C@H](Cc2ccc(OCc3ccccc3)cc2)C(=O)N[C@@H]1Cc1ccccc1`: the Activity result is “Dose-dependent effect”.

As for `O=C1N[C@@H](Cc2ccc(OCc3ccccc3)cc2)C(=O)N[C@H]1Cc1ccccc1`, the Activity result was “Dose-dependent effect”.

Another data set deals with Porphyromonas gingivalis. Put plainly: Antibiofilm activity against Porphyromonas gingivalis ATCC 33277 assessed as inhibition of biofilm formation up to 96 ug/mL after 24 hrs by crystal violet staining based assay.
Settings: not given
The class given is functional, organism-based.
As for `O=C1N[C@H](Cc2ccc(OCc3ccccc3)cc2)C(=O)N[C@@H]1Cc1ccccc1`, the inhibition result is “inactive”.

In the case of `O=C1N[C@@H](Cc2ccc(OCc3ccccc3)cc2)C(=O)N[C@H]1Cc1ccccc1`, the inhibition result was “inactive”.

The next data set has as its system Actinomyces naeslundii. The data set is described as follows: Antibiofilm activity against Actinomyces naeslundii ATCC 49340 assessed as reduction of biofilm formation at 48 ug/mL after 24 hrs by crystal violet staining based assay. The class given is functional, organism-based.
Settings: not given
In the case of `O=C1N[C@H](Cc2ccc(OCc3ccccc3)cc2)C(=O)N[C@@H]1Cc1ccccc1`, the inhibition result is “Active”.

Another data set has as its system Actinomyces naeslundii. The data set is described as follows: Antibiofilm activity against Actinomyces naeslundii ATCC 49340 assessed as reduction of biofilm formation by visual analysis. The class given is functional, organism-based.
Settings: not given
Turning to `O=C1N[C@H](Cc2ccc(OCc3ccccc3)cc2)C(=O)N[C@@H]1Cc1ccccc1`, the inhibition result is “Active”.

Another data set deals with Streptococcus mutans. Put plainly: Disruption of Streptococcus mutans ATCC 25175 pre-formed mature biofilm assessed as reduction in biofilm biomass at 96 ug/mL after 12 hrs by crystal violet staining based assay. The class given is functional, organism-based.
Settings: not given
Consider `O=C1N[C@H](Cc2ccc(OCc3ccccc3)cc2)C(=O)N[C@@H]1Cc1ccccc1`, for which the result was inactive.

Regarding `O=C1N[C@@H](Cc2ccc(OCc3ccccc3)cc2)C(=O)N[C@H]1Cc1ccccc1`, the result was inactive.

Another data set concerns Streptococcus mutans. Put plainly: Antibiofilm activity against Streptococcus mutans ATCC 25175 assessed as inhibition of biofilm formation at 6 to 12 ug/mL after 24 hrs by crystal violet staining-based assay. It counts as functional, organism-based.
Settings: not given
With `O=C1N[C@H](Cc2ccc(OCc3ccccc3)cc2)C(=O)N[C@@H]1Cc1ccccc1`, the outcome was Active.

As to `O=C1N[C@@H](Cc2ccc(OCc3ccccc3)cc2)C(=O)N[C@H]1Cc1ccccc1`, the outcome was Active.

A further data set concerns Candida albicans. Put plainly: Antiadherence activity against FITC-labelled Candida albicans ATCC 28366 assessed as reduction in bacterial adhesion to hydroxylapatite up to 96 ug/mL after 1 hr by fluorescence assay relative to control. The class given is functional.
Settings: not given
Regarding `O=C1N[C@H](Cc2ccc(OCc3ccccc3)cc2)C(=O)N[C@@H]1Cc1ccccc1`, the outcome was Active.

In the case of `O=C1N[C@@H](Cc2ccc(OCc3ccccc3)cc2)C(=O)N[C@H]1Cc1ccccc1`, the outcome was Active.

The subject of another data set is Pseudomonas aeruginosa. The data set is described as follows: Growth inhibition of Pseudomonas aeruginosa ATCC 10145 incubated for 24 hrs under aerobic condition by microdilution method. The class given is organism-based.
Settings: not given
Molecule `O=C1N[C@H](Cc2ccc(OCc3ccccc3)cc2)C(=O)N[C@@H]1Cc1ccccc1` displayed an MIC greater than 192 µg/mL.

Molecule `O=C1N[C@@H](Cc2ccc(OCc3ccccc3)cc2)C(=O)N[C@H]1Cc1ccccc1` displayed an MIC greater than 192 µg/mL.

In the next data set the test system is Actinomyces naeslundii. The data set is described as follows: Antibiofilm activity against Actinomyces naeslundii ATCC 49340 assessed as prevention of homogenous biofilm formation up to 96 ug/mL after 24 hrs by crystal violet staining based assay. It counts as functional, organism-based.
Settings: not given
Consider `O=C1N[C@H](Cc2ccc(OCc3ccccc3)cc2)C(=O)N[C@@H]1Cc1ccccc1`, for which the result was Active.

The subject of a further data set is Actinomyces naeslundii. Put plainly: Antibiofilm activity against Actinomyces naeslundii ATCC 49340 assessed as prevention of homogenous biofilm formation at 96 ug/mL after 24 hrs by crystal violet staining-based assay. The class given is functional, organism-based.
Settings: not given
Take `O=C1N[C@@H](Cc2ccc(OCc3ccccc3)cc2)C(=O)N[C@H]1Cc1ccccc1`: the outcome was inactive.

A further data set has as its system Streptococcus mutans. The data set is described as follows: Inhibition of planktonic growth of Streptococcus mutans ATCC 25175 up to 96 ug/mL after 24 hrs relative to control. The class given is organism-based.
Settings: not given
For `O=C1N[C@H](Cc2ccc(OCc3ccccc3)cc2)C(=O)N[C@@H]1Cc1ccccc1`, the “growth inhibition (GI)” value is “Non-Toxic”.

On to `O=C1N[C@@H](Cc2ccc(OCc3ccccc3)cc2)C(=O)N[C@H]1Cc1ccccc1`, for which the “growth inhibition (GI)” value is on record as “Non-Toxic”.

Another data set has as its system Streptococcus mutans. Put plainly: Antiadherence activity in FITC-labelled Streptococcus mutans ATCC 25175 assessed as reduction in bacterial adhesion to hydroxylapatite up to 96 ug/mL after 1 hr fluorescence assay. It counts as functional, organism-based.
Settings: not given
Take `O=C1N[C@H](Cc2ccc(OCc3ccccc3)cc2)C(=O)N[C@@H]1Cc1ccccc1`: the outcome was Active.

For `O=C1N[C@@H](Cc2ccc(OCc3ccccc3)cc2)C(=O)N[C@H]1Cc1ccccc1`, the result was Active.

The next data set concerns Limosilactobacillus fermentum. Put plainly: Antibiofilm activity against Lactobacillus fermentum LacB1 assessed as inhibition of biofilm formation up to 96 ug/mL after 24 hrs by crystal violet staining based assay. It counts as functional, organism-based.
Settings: not given
For `O=C1N[C@H](Cc2ccc(OCc3ccccc3)cc2)C(=O)N[C@@H]1Cc1ccccc1`, the inhibition result is “inactive”.

For the molecule `O=C1N[C@@H](Cc2ccc(OCc3ccccc3)cc2)C(=O)N[C@H]1Cc1ccccc1`, the inhibition entry is “inactive”.

The next data set deals with Escherichia coli. Put plainly: Growth inhibition of Escherichia coli ATCC 15939 incubated for 24 hrs under aerobic condition by microdilution method. The class given is organism-based.
Settings: not given
The molecule `O=C1N[C@H](Cc2ccc(OCc3ccccc3)cc2)C(=O)N[C@@H]1Cc1ccccc1` showed an MIC greater than 192 µg/mL.

The molecule `O=C1N[C@@H](Cc2ccc(OCc3ccccc3)cc2)C(=O)N[C@H]1Cc1ccccc1` gave an MIC greater than 192 µg/mL.

A further data set relates to Candida albicans. The data set is described as follows: Disruption of Candida albicans ATCC 28366 pre-formed mature biofilm assessed as reduction in biofilm biomass at 96 ug/mL after 12 hrs by crystal violet staining based assay. The class given is functional, organism-based.
Settings: not given
Take `O=C1N[C@H](Cc2ccc(OCc3ccccc3)cc2)C(=O)N[C@@H]1Cc1ccccc1`: the outcome was inactive.

On to `O=C1N[C@@H](Cc2ccc(OCc3ccccc3)cc2)C(=O)N[C@H]1Cc1ccccc1`, for which the result was inactive.

A further data set relates to Candida albicans. Put plainly: Growth inhibition of Candida albicans ATCC 28366 up to 96 ug/ml measured after 24 hrs by microdilution method. It counts as organism-based. The following applies: in vitro.
Consider `O=C1N[C@H](Cc2ccc(OCc3ccccc3)cc2)C(=O)N[C@@H]1Cc1ccccc1`, for which the “growth inhibition (GI)” value is on record as “Non-Toxic”.

As to `O=C1N[C@@H](Cc2ccc(OCc3ccccc3)cc2)C(=O)N[C@H]1Cc1ccccc1`, the “growth inhibition (GI)” value was “Non-Toxic”.

The subject of a further data set is Streptococcus mutans. Put plainly: Antibiofilm activity against Streptococcus mutans ATCC 25175 assessed as inhibition of biofilm formation up to 96 ug/mL after 24 hrs by crystal violet staining-based assay.
Settings: not given
It counts as functional, organism-based.
In the case of `O=C1N[C@H](Cc2ccc(OCc3ccccc3)cc2)C(=O)N[C@@H]1Cc1ccccc1`, the inhibition entry is “Active”.

Turning to `O=C1N[C@@H](Cc2ccc(OCc3ccccc3)cc2)C(=O)N[C@H]1Cc1ccccc1`, the inhibition entry was “Active”.

In the next data set the test system is Fusobacterium nucleatum. The data set is described as follows: Antibiofilm activity against Fusobacterium nucleatum ATCC 25586 assessed as inhibition of biofilm formation up to 96 ug/mL after 24 hrs by crystal violet staining based assay. It counts as functional, organism-based.
Settings: not given
For the molecule `O=C1N[C@H](Cc2ccc(OCc3ccccc3)cc2)C(=O)N[C@@H]1Cc1ccccc1`, the inhibition entry is “inactive”.

As for `O=C1N[C@@H](Cc2ccc(OCc3ccccc3)cc2)C(=O)N[C@H]1Cc1ccccc1`, the inhibition entry was “inactive”.

Another data set deals with Staphylococcus aureus. Put plainly: Growth inhibition of Staphylococcus aureus ATCC 6538 incubated for 24 hrs under aerobic condition by microdilution method. The class given is organism-based. The following applies: in vitro.
With `O=C1N[C@H](Cc2ccc(OCc3ccccc3)cc2)C(=O)N[C@@H]1Cc1ccccc1`, the MIC was greater than 192 µg/mL.

In turn, `O=C1N[C@@H](Cc2ccc(OCc3ccccc3)cc2)C(=O)N[C@H]1Cc1ccccc1` yielded an MIC greater than 192 µg/mL.

The next data set has as its system Actinomyces naeslundii. Put plainly: Antibiofilm activity against Actinomyces naeslundii ATCC 49340 assessed as inhibition of bacterial adhesion up to 96 ug/mL after 24 hrs by crystal violet staining based assay.
Settings: not given
The class given is functional, organism-based.
Take `O=C1N[C@H](Cc2ccc(OCc3ccccc3)cc2)C(=O)N[C@@H]1Cc1ccccc1`: the inhibition entry was “inactive”.
